Experimental data as given in ChEMBL document CHEMBL1201862, “PubChem BioAssay data set” (2004).
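Assay format: 96-well plates, 48-hour exposure. Abbreviation: GI50, concentration required for 50% inhibition of growth.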 Activity calls are given as the source filed them. Cut-off read from the data, not from the text of the source: active = GI50 up to about 1.1 µM and inactive = higher.

What was measured:
Assay in all cases: inhibition of tumour cell growth, NCI panel, 48 h
[1] = test system: OVCAR-8
[2] = test system: HOP-62
[3] = test system: UACC-62
[4] = test system: SF-268
[5] = test system: SF-539
[6] = test system: SK-MEL-5
[7] = test system: EKVX
[8] = test system: NCI-H460
[9] = test system: OVCAR-3
[10] = test system: CAKI-1
[11] = test system: HCT-15
[12] = test system: HCT-116
[13] = test system: OVCAR-5
[14] = test system: HOP-92
[15] = test system: Malme-3M
[16] = test system: SK-MEL-2
[17] = test system: SNB-75
[18] = test system: LOX IMVI
[19] = test system: CCRF-CEM

Measured: GI50

O=C1/C(=C/c2ccccc2)CCCC/C1=C\c1ccccc1
32.9 µM: [11]
inactive: [1] 75.3 µM | [2] > 100 µM | [3] > 100 µM | [4] 88.9 µM | [5] > 100 µM | [6] 24.1 µM | [7] > 100 µM | [8] 51.3 µM | [9] > 100 µM | [10] > 100 µM | [12] 40.6 µM | [13] 29 µM | [14] 40.1 µM | [15] 36.2 µM | [16] 47.9 µM | [17] 66.7 µM | [18] 53.7 µM

COc1ccccc1N1CCN(CCCNC(=O)c2cc(Cl)c(N)c(Cl)c2)CC1
inactive: [1] 47.5 µM | [2] 29.7 µM | [3] 35 µM | [4] 77.4 µM | [5] 28.6 µM | [6] 18.2 µM | [7] > 100 µM | [8] 23.3 µM | [12] 31 µM | [13] 44.6 µM | [14] 4.36 µM | [19] 29.7 µM | [15] 18.8 µM | [17] 59.3 µM
18.5 µM: [11]

O=C1c2ccccc2C(=O)c2sc(Nc3ccc(Cl)cc3)nc21
inactive: [1] 1.75 µM | [2] 4.68 µM | [3] 1.85 µM | [4] 2.4 µM | [5] 4.55 µM | [6] 1.8 µM | [7] 5.77 µM | [8] 2.82 µM | [9] 1.51 µM | [10] 1.99 µM | [12] 1.64 µM | [13] 5.13 µM | [19] 1.32 µM | [15] 1.96 µM | [16] 3.67 µM | [17] 8.41 µM | [18] 1.59 µM
1.8 µM: [11]

O=C1CCCCCCCCCCC(=O)C2CCOCCOCCOCCC1Cc1cccc(n1)C2
inactive: [1] 59.3 µM | [2] > 100 µM | [3] > 100 µM | [4] 94.4 µM | [5] > 100 µM | [6] 42.4 µM | [7] > 100 µM | [8] 99.1 µM | [9] 40.6 µM | [10] 41.2 µM | [12] 88.7 µM | [19] 59.2 µM | [15] > 100 µM | [16] > 100 µM | [17] 49.3 µM | [18] > 100 µM
83.2 µM: [11]

Cc1ccc(N(C(=O)CC(=O)NN)C(=O)c2ccccc2Cl)cc1
> 100 µM: [11]
inactive: [1] > 100 µM | [2] > 100 µM | [3] > 100 µM | [4] > 100 µM | [5] > 100 µM | [7] > 100 µM | [8] > 100 µM | [9] > 100 µM | [10] > 100 µM | [12] > 100 µM | [13] > 100 µM | [14] > 100 µM | [19] > 100 µM | [15] > 100 µM | [17] > 100 µM | [18] > 100 µM

COC(=O)CC1NC(=O)[C@@H]1C(C)O (some centres undefined)
> 100 µM: [11]
inactive: [1] > 100 µM | [2] > 100 µM | [3] > 100 µM | [4] > 100 µM | [5] > 100 µM | [6] > 100 µM | [7] > 100 µM | [8] > 100 µM | [9] > 100 µM | [12] > 100 µM | [19] > 100 µM | [15] > 100 µM | [16] > 100 µM | [17] > 100 µM | [18] > 100 µM

Cc1n[nH]c(N)c1C(N)=O
inactive: [1] > 100 µM | [3] > 100 µM | [4] > 100 µM | [5] > 100 µM | [6] > 100 µM | [7] > 100 µM | [10] > 100 µM | [13] > 100 µM | [19] > 100 µM | [15] > 100 µM | [16] > 100 µM | [17] > 100 µM | [18] > 100 µM
> 100 µM: [11]

CCOC(=O)C(=CNC(Cc1c[nH]c2ccccc12)C(=O)OC)C(=O)OCC (centres undefined)
> 100 µM: [11]
inactive: [1] > 100 µM | [3] 71.1 µM | [4] > 100 µM | [5] > 100 µM | [6] 86.3 µM | [7] > 100 µM | [8] 44.7 µM | [9] > 100 µM | [10] > 100 µM | [14] 16.6 µM | [19] > 100 µM | [15] > 100 µM | [16] 63.8 µM | [17] > 100 µM | [18] > 100 µM
active: [2] < 0.01 µM

COC(=O)C(Cc1nc2ccc(Cl)cc2nc1O)C(=O)C(=O)Nc1ccccc1[N+](=O)[O-] (centres undefined)
> 100 µM: [11]
inactive: [1] > 100 µM | [2] > 100 µM | [3] > 100 µM | [4] > 100 µM | [5] > 100 µM | [6] > 100 µM | [7] 7.8 µM | [8] > 100 µM | [9] > 100 µM | [10] > 100 µM | [12] > 100 µM | [13] > 100 µM | [19] > 100 µM | [15] > 100 µM | [16] > 100 µM | [17] > 100 µM | [18] > 100 µM

CN(C)C(=S)/N=c1\ss/c(=N\C(=S)N(C)C)n1-c1ccc2c(c1)OCO2
inactive: [1] > 100 µM | [2] > 100 µM | [3] 5.56 µM | [4] > 100 µM | [5] > 100 µM | [6] > 100 µM | [7] > 100 µM | [9] > 100 µM | [10] > 100 µM | [12] > 100 µM | [13] > 100 µM | [15] > 100 µM | [16] > 100 µM | [17] > 100 µM | [18] > 100 µM
> 100 µM: [11]

COC1C=COC2(C)Oc3c(C)c(O)c4c(O)c(c(/C=N/N5CCN(N)CC5)c(O)c4c3C2=O)NC(=O)C(C)=CC=CC(C)C(O)C(C)C(O)C(C)C(OC(C)=O)C1C (centres undefined)
inactive: [1] 88.3 µM | [2] > 100 µM | [3] > 100 µM | [4] 62.5 µM | [5] > 100 µM | [6] 84.3 µM | [7] > 100 µM | [10] > 100 µM | [12] 30.7 µM | [13] > 100 µM | [14] 65.6 µM | [19] 20.1 µM | [15] > 100 µM | [16] > 100 µM | [17] 34.7 µM | [18] 69 µM
80.7 µM: [11]

COC(=O)CC(c1ccccc1)C1(c2ccccc2)SCCS1 (centres undefined)
inactive: [1] 169 µM | [2] 266 µM | [3] 142 µM | [4] 150 µM | [5] > 290 µM | [6] 189 µM | [7] > 290 µM | [8] 261 µM | [9] 55.1 µM | [10] 262 µM | [12] 101 µM | [13] > 290 µM | [14] 12.6 µM | [19] 105 µM | [15] > 290 µM | [16] 261 µM | [18] 130 µM
94.8 µM: [11]

COC(=O)C(CC(=O)c1c[nH]c2ccccc12)c1c[nH]c2ccccc12 (centres undefined)
16.4 µM: [11]
inactive: [1] 22.6 µM | [2] 21.5 µM | [3] > 10 µM | [5] 19.3 µM | [6] 16.4 µM | [7] 23.4 µM | [8] 18.8 µM | [9] > 10 µM | [10] 20 µM | [12] 15.8 µM | [13] 22.2 µM | [19] 17.9 µM | [15] 19.1 µM | [16] 20.1 µM | [17] 21.2 µM

C#CCOc1c(C(=O)OCC)c(=O)n(C)c2ccccc12
> 100 µM: [11]
inactive: [1] > 100 µM | [3] > 100 µM | [4] > 100 µM | [5] > 100 µM | [6] > 100 µM | [7] > 100 µM | [8] > 100 µM | [9] > 100 µM | [10] > 100 µM | [14] 70 µM | [19] > 100 µM | [15] > 100 µM | [16] > 100 µM | [17] 54.5 µM | [18] > 100 µM
active: [2] < 0.01 µM

CN(c1n[n+]2c(-c3ccccc3)csc2s1)c1n[n+]2c(-c3ccccc3)csc2s1
0.144 µM: [11]
inactive: [1] > 100 µM | [3] > 100 µM | [4] > 100 µM | [5] > 100 µM | [6] 89.5 µM | [7] > 100 µM | [8] > 100 µM | [9] > 100 µM | [12] > 100 µM | [13] > 100 µM | [14] > 100 µM | [19] 68.9 µM | [15] 26.3 µM | [16] > 100 µM | [17] > 100 µM | [18] > 100 µM

CCCOc1nc(N)c2cnn(C3CCCCO3)c2n1 (centres undefined)
inactive: [1] > 100 µM | [2] > 100 µM | [3] > 100 µM | [4] > 100 µM | [5] > 100 µM | [6] > 100 µM | [7] > 100 µM | [8] > 100 µM | [9] > 100 µM | [10] > 100 µM | [12] > 100 µM | [13] > 100 µM | [14] > 100 µM | [19] > 100 µM | [15] > 100 µM | [16] > 100 µM | [17] 56.8 µM
> 100 µM: [11]

COC1[C@@H](OC(C)=O)[C@@H](NC(=O)C(Cl)(Cl)Cl)C(I)[C@@H](N2C(=O)c3ccccc3C2=O)[C@H]1OC (some centres undefined)
> 100 µM: [11]
inactive: [1] > 100 µM | [2] > 100 µM | [3] > 100 µM | [4] > 100 µM | [5] 50.2 µM | [6] > 100 µM | [7] > 100 µM | [8] > 100 µM | [12] > 100 µM | [13] > 100 µM | [14] 47.5 µM | [19] > 100 µM | [17] > 100 µM | [18] > 100 µM
